Key:
[1] = system: bile duct ligated (BDL) rats; test: Bile duct ligated (BDL) rats: serum chemistry, liver histology and liver fibrosis marker mRNA; format: in vivo, rat; conditions: for level of Collagen I mRNA in liver / level of alpha SMA mRNA in liver: compared to sham operated rats (p<0.05)
Protocol: A study of the effects of an FXR agonist (GW4064) on the livers of bile duct ligated (BDL) rats was carried out. This study was initially devised to examine the effects of FXR agonist on non-fibrotic liver damage due to cholestosis. The present researchers additionally went on to examine samples from these experiments for markers of liver fibrosis.
Male Sprague-Dawley rats (approximately 300 grams) were obtained from Charles River Laboratories Inc (Raleigh, N.C.) and were maintained on a 12 hour light/12 hour dark light cycle. Animals were anesthetized by the administration of 2-3% isoflurane. Laparotomy was performed under sterile technique and the liver and duodenum gently displaced to reveal the common bile duct. The bile duct was separated from the surrounding tissue and two ligatures of 4-0 Ethilon were placed around it. The bile duct was clamped between the two ligatures with an aneurysm clamp and the ligatures drawn tight. An additional ligature was placed proximal to the first (near the liver). The clamp was removed and the bile duct severed between the ligatures. The muscle wall was closed with 4-0 Vicryl and the skin closed with staples. Sham controls underwent laparotomy, but the bile ducts were not ligated or transected. Animals were allowed food and water ad libitum throughout the study period. Animals were anesthetized with 2-3% isoflurane and sacrificed by cardiac puncture.
Twenty-four hours after surgery, groups of rats (n=6-8) received intraperitoneal injections once daily for four days, of either (a) 5 ml/kg corn oil (vehicle); (b) 30 mg/kg GW4064 in corn oil; or (c) 15 mg/kg TUDCA in corn oil (taurine-conjugated ursodeoxycholic acid, used clinically to treat cholestosis). Sham operated animals received intraperitoneal injections of 5 ml/kg corn oil vehicle 24 hours after sham operation. Four hours after the last dose on day four, blood and livers were collected.
Serum activities of alanine aminotransferase (ALT), asparate aminotransferase (AST), sorbital dehydrogenase (SDH), y-glutamyl transferase (GGT), lactate dehydrogenase (LDH), alkaline phosphatase (ALP) and total bilirubin were determined. Serum bile acids (BILEA) were determined using a commercially available assay (Sigma Chemical Co., St Louis, Mo.).
In humans, liver fibrosis secondary to cholestatic disease is known to occur clinically. Experimentally, bile duct ligation in rats as a model of cholestosis is also known to cause liver fibrosis. In view of this, the present researchers additionally examined the BDL rat liver tissue for markers of liver fibrosis. Levels of Smooth Muscle Actin (SMA) mRNA, Collagen I mRNA, and TGFbeta1 mRNA were measured; results are graphed in FIG. 1a-1c where white bars=sham operated rats; black bars=vehicle treated BDL rats; striped bars=GW4064 treated BDL rats; and dotted bars=TUDCA treated BDL rats.

[2] = system: rats treated with carbon tetrachloride (CCl4); test: Acute liver fibrosis in vivo model (single dose CCl4); design: species or system rat
Protocol: Male CRL:CD(SD)IGS® rats (Charles River Laboratories) weighing 250-280 g were randomized into three groups of 5-6 rats per group. On day 1, rats in Group 1 (Control) were given a single intraperitoneal (ip) injection of corn oil (5 ml/kg). Rats in Groups 2 and 3 were given a single ip injection of 30% carbon tetrachloride (CCl4) in corn oil (5 ml/kg). Beginning four hours after the initial ip injections and continuing for four days, rats in Group 1 (Control) and Group 2 (CCl4) were given vehicle (20% Encapsin; Cerestar Inc., IN) by oral gavage twice daily. Beginning four hours after the initial ip injections and continuing for four days, rats in Group 3 (CCl4+GW4064) were given 30 mg/kg GW4064 in vehicle by oral gavage, twice daily for four days.
Four hours after the final oral dose on day four, rats were sacrificed under deep anesthesia and blood and livers were collected. A portion of liver from each rat was fixed in 10% phosphate-buffered formalin (pH 7.4). The remaining livers were snap frozen in liquid nitrogen and stored at −80° C. prior to RNA extraction.
Histopathology: The tissues were processed by standard histological techniques. Liver sections were stained with hematoxylin and eosin (H&E) using standard protocols and examined by light microscopy for necrosis and other structural changes. Immunohistochemistry was used to visualize α-smooth muscle actin (DAKO Corporation, CA) according to the manufacturer's instructions. Sirius Red (Sigma, St Louis, Mo.) was used to visualize collagen according to the manufacturer's instructions.
(§1) Reverse Transcription Quantitative Polymerase Chain Reaction (RTQ-PCR). Total RNA was extracted from rat liver using TRIzol reagent (Invitrogen) according to the manufacturer's directions. The RNA was treated with DNase I (Ambion, Austin, Tex.) at 37° C. for 30 min, followed by inactivation at 75° C. for 5 min. RNA was then quantitated using the RiboGreen RNA quantitation kit (Molecular Probes, Eugene, Oreg.). RNA expression was measured by RTQ-PCR using an ABI PRISM 7700 or 7900 Sequence Detection System (PE Applied Biosystems, Foster City, Calif.).
(§2) Statistical Analysis: All data were analyzed by one-way analysis of variance (ANOVA) followed by Duncan's multiple range test. The 0.05 level of probability was used as the criteria of significance.

[3] = system: rat hepatic stellate cells; test: In vitro stellate cell activation (RTQ-PCR of SMA, collagen, fibronectin mRNA); format: cell-based
Protocol: Rat hepatic stellate cells were isolated from male CRL:CD(SD)IGS® rats (Charles River Laboratories) as described previously. Cells were plated into six well plates at a density of 1×10^6 cells/well in DMEM-F12 media with 20% FCS. Twenty-four hours after plating, the media was replaced with media containing 0.1% DMSO (vehicle control) or 10 uM GW4064 with 0.1% DMSO. Following 2, 4, 6 or 8 days of treatment, total RNA was extracted from the cells using TRIzol reagent (Invitrogen) according to the manufacturer's directions. The RNA was treated with DNase I (Ambion, Austin, Tex.) at 37° C. for 30 min, followed by inactivation at 75° C. for 5 min. RNA was then quantitated using the RiboGreen RNA quantitation kit (Molecular Probes, Eugene, Oreg.). RNA expression was measured by RTQ-PCR using an ABI PRISM 7700 or 7900 Sequence Detection System (PE Applied Biosystems, Foster City, Calif.). For analysis, gene expression was normalized to 18S RNA. Follow-up studies were conducted using the same study design, except for a lower dose of GW4064 (3 uM). In the vehicle control group, SMA, collagen and fibronectin peaked at six days of culture; collagen and fibronectin expression began to decline following eight days in culture (FIGS. 4A-4C, white bars). […] (FIGS. 4a-4c, shaded bars; asterisk indicates p<0.05 compared to the vehicle treatment at the indicated timepoint).

[4] = system: human hepatocytes; conditions: compared to control cells; cited from earlier work
[5] = system: rats treated with carbon tetrachloride (CCl4); test: Chronic liver fibrosis in vivo model (twice weekly CCl4 up to eight weeks); design: species or system rat
Protocol: Male CRL:CD(SD)IGS® rats (Charles River Laboratories) weighing 250-350 were randomized into 3 groups. All rats received twice weekly intraperitoneal (ip) injections of 20% carbon tetrachloride (CCl4) in corn oil (5 ml/kg) for the duration of the study. Two weeks after the initiation of the CCl4 injections, rats in Group 1 (CCL4+Vehicle) began receiving vehicle (6% Encapsin; Cerestar Inc., IN) twice daily, rats in Group 2 (CCL4+GW4064) began receiving 30 mg/kg GW4064 in vehicle twice daily, and rats in Group 3 (CCL4+Silymarin) began receiving silymarin in vehicle twice daily. (Silymarin reduces TGFb1 and collagen deposition in fibrotic rat liver (Jia et al., J Hepatol 2001 September; 35(3):392-8).
Multiple rats from each group were sacrificed after each of four, six and eight weeks on study. Rats were also sacrificed following the two weeks of CCL4 exposure, prior to initiation of drug treatment, as well as five untreated Naive rats. An additional five untreated Naïve rats were also sacrificed at the eight week timepoint. Plasma, serum, kidneys and livers were collected for analysis. Histopathological, mRNA and serum markers of liver damage and liver fibrosis were examined.
Histopathology: The tissues were processed by standard histological techniques. Liver sections were stained with hematoxylin and eosin (H&E) using standard protocols and examined by light microscopy for necrosis and other structural changes. Immunohistochemistry was used to visualize α-smooth muscle actin (Sigma, St Louis, Mo.) according to the manufacturer's instructions. Sirius Red (Sigma, St Louis, Mo.) was used to visualize collagen according to the manufacturer's instructions. Liver sections were stained with Masson's trichrome (Sigma, St Louis, Mo.) according to the manufacturer's instructions.
as §1, with “from sections of” for “from”, “75°C.” for “75° C.”
Serum Analysis: Serum TIMP1 (R&D Systems, Minneapolis, Minn.) levels were measured according to the manufacturer's directions.
as §2

[6] = 30 mg/kg GW4064 or 15 mg/kg TUDCA ip once daily for four days, compared to vehicle-treated BDL rats
[7] = day four, compared to vehicle-treated BDL rats
[8] = ip once daily for four days, compared to vehicle treated BDL rats
[9] = 30 mg/kg oral gavage twice daily for four days after single CCl4, compared to CCl4+V animals
[10] = 30 mg/kg oral twice daily four days, compared to control
[11] = 30 mg/kg oral twice daily four days, compared to group 2 (CCl4+vehicle), p<0.05
[12] = 3 uM, eight days, compared to vehicle
[13] = 3 uM, six days, compared to vehicle
[14] = 10 uM, eighth day, compared to control group, normalized to 18S
[15] = 10 uM, six days, compared to vehicle control group
[16] = twice daily from week 2, compared to CCl4+Vehicle rats
[17] = twice daily from week 2, compared to CCl4+Vehicle rats, 8 week timepoint

SMILES: C[C@H](CCC(=O)NCCS(=O)(=O)O)[C@H]1CC[C@H]2[C@@H]3[C@@H](O)C[C@@H]4C[C@H](O)CC[C@]4(C)[C@H]3CC[C@]12C [TUDCA, taurine-conjugated ursodeoxycholic acid, reference compound]
- serum level of LDH [1, 6]: significant decrease
- level of Collagen I mRNA in liver ([1]; day four): significantly different
- level of alpha SMA mRNA in liver ([1]; day four): significantly different
- liver sections, histology overall (necrosis, bile duct proliferation) ([1]; day four, compared to vehicle treated BDL rats): did not appear to differ substantially from vehicle treated BDL rats

SMILES: CC(C)c1onc(-c2c(Cl)cccc2Cl)c1COc1ccc(/C=C/c2cccc(C(=O)O)c2)c(Cl)c1 [GW4064]
- serum level of ALT [1, 6]: reductions
- serum level of LDH [1, 6]: reductions
- level of TGFb1 mRNA in liver ([1]; day four, compared to BDL rats receiving vehicle or TUDCA): significantly reduced
- level of Collagen I mRNA in liver ([1]; day four): significantly different
- level of alpha SMA mRNA in liver ([1]; day four): significantly different
- number of mitotic nuclei (liver histology) ([1]; day four, compared to vehicle treatment): reduced
- bile duct proliferation (liver histology) [1, 7]: reduced bile duct proliferation
- fatty cell degeneration (liver histology) [1, 7]: decreased fatty cell degeneration
- liver necrotic lesions (histology) [1, 7]: qualitatively fewer and smaller necrotic lesions
- serum bile acids [1, 8]: did not significantly reduce
- serum level of ALP [1, 8]: did not significantly reduce
- serum level of GGT [1, 8]: did not significantly reduce
- serum level of SDH [1, 8]: did not significantly reduce
- serum total bilirubin [1, 8]: did not significantly reduce
- serum level of AST ([1]; ip once daily for four days, compared to vehicle-treated BDL rats): reductions
- liver SMA (immunohistochemistry) [2, 9]: reduced SMA
- liver collagen deposition (Sirius Red) [2, 9]: reduced collagen deposition
- liver Collagen I mRNA [2, 10]: not statistically different from control
- liver SMA mRNA [2, 10]: not statistically different from control
- liver TGFb1 mRNA [2, 10]: not statistically different from control
- liver Collagen I mRNA [2, 11]: significantly decreased
- liver SMA mRNA [2, 11]: significantly decreased
- collagen mRNA [3, 12]: not significantly different from vehicle
- decrease of SMA mRNA [3, 12]: 40%
- fibronectin mRNA [3, 12]: not significantly different from vehicle
- decrease of SMA mRNA [3, 13]: 55%
- decrease of collagen mRNA [3, 13]: 31%
- decrease of fibronectin mRNA [3, 13]: 28%
- decrease of SMA mRNA [3, 14]: 84%
- decrease of collagen mRNA [3, 14]: 51%
- decrease of fibronectin mRNA [3, 14]: 79%
- SMA mRNA [3, 15]: decreased
- fibronectin mRNA [3, 15]: decreased
- expression of Fibroblast Growth Factor 19 (FGF19) [4]: increased
- liver collagen deposition (Sirius Red) ([5]; twice daily from week 2 (GW4064 30 mg/kg), six and eight week timepoints, compared to CCl4+V animals): reduced collagen deposition
- liver TGFb1 mRNA [5, 16]: unchanged
- reduction in liver SMA mRNA [5, 16]: not statistically significant
- liver Collagen I mRNA [5, 17]: significant reductions
- liver TIMP1 mRNA [5, 17]: significant reductions
- serum TIMP1 ([5]; twice daily from week 2, compared to CCl4+Vehicle treated rats at 8 weeks, p<0.05): significant reductions
